Assay results: patent US11384097B2, “Tetrahydroisoquinoline derivative, preparation method therefor and use thereof” (ZHEJIANG HISUN PHARMACEUTICAL CO., LTD., priority 2018, dated 2022)
Read-outs that look alike come from different tables or passages of the source.

Legend:
Human AT2R = biological target: T1, Human AT2R (Homo sapiens, UniProt P50052); assay: Antagonistic activity assay on human AT2R ligand binding (Tag-lite HTRF, Tb-labeled-AT2R cells); conditions: AT2 ligand binding, red agonist fluorescent ligand
T1 construct: Terbium (Tb) donor label on the receptor; From my own knowledge, the Tag-lite format usually uses an N-terminal SNAP-tag fusion labelled with Lumi4-Tb; expressed in transfected cells
T1 sequence (P50052 1-363): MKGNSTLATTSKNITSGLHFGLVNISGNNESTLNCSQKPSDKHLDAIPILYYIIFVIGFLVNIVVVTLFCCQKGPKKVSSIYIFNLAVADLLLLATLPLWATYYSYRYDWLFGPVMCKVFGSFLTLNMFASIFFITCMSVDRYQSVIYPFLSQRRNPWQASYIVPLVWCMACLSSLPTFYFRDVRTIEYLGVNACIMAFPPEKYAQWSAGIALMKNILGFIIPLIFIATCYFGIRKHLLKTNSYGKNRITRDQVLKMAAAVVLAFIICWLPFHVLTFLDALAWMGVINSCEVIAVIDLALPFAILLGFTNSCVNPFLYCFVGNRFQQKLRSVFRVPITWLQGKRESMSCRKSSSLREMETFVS
Description: Antagonistic Activity Assay of the Compound of the Present Disclosure on Human AT2R Ligand Binding
According to standard methods, all compounds were dissolved in dimethyl sulfoxide and prepared as 10 mM stock solutions.
(3) Each of the diluted compound in step (2) was transferred to a working plate (3657, Corning) at 160 nL/well, at 200 g, at room temperature for 1 minute;
(4) 40 μl 1×TLB was added to the above working plate, and it was centrifuged at 200 g (centrifugal force) at room temperature for 1 minute, shook on a shaker for 15 minutes to mix well, and centrifuged at 200 g (working concentration of the compound was 4×) at room temperature for 1 minute for later use;
(6) 5 mL 1×TLB was taken in a 15 mL centrifuge tube;
(7) a Tb-labeled-AT2R cells were frozen and thawed in a 37° C. water bath until the ice was completely melted (1-2 minutes);
(8) The frozen and thawed cells were rapidly transferred to the 1×TLB in step (6), and the resulting solution was mixed gently, and then centrifuged at 1200 g at room temperature for 5 minutes;
After being mixed well, the resulting mixture was placed at room temperature for late use;
(11) The reaction plate was centrifuged at 200 g at room temperature for 1 minute, and stood for 1 hour at room temperature of 25° C., and then it was centrifuged at 200 g at room temperature for 1 minute. The data was collected using Envision HTRF microplate reader, and IC50 was calculated using a nonlinear fitting formula.

[1] = Metabolic stability in rat liver microsomes; format: in vitro ADME; conditions: rat liver microsomes 0.5 mg/mL, 1 μM compound, NADPH 1 mM; read-out: Half-life/(T1/2, min)
Description: Test Example 2. Study on the Metabolic Stability of the Compound of the Present Disclosure in Rat Liver Microsomes
The purpose of this experiment is to study the metabolic stability of the compounds of the present disclosure in rat liver microsomes.
The compounds were incubated with rat liver microsomes and coenzyme NADPH was added to initiate the reaction. At 0, 5, 15, 30 and 60 minutes, 20 μL of incubation solution was taken out and transferred to 200 μL of acetonitrile containing internal standard to stop the reaction. After protein precipitation, the resulting mixture was centrifuged at 3,700 rpm for 10 minutes, and the supernatant was taken. The supernatant was diluted 1:1 with water and analyzed by LC-MS/MS method. According to the elimination half-life of the test compound in the incubation system, the in vitro intrinsic clearance rate was calculated. Midazolam was used as the internal reference compound and all incubations were performed in duplicate in parallel.
The peak area ratio analyte/internal standard (Aanalyte/AIS) is obtained by the instrument, and the remaining percentage (% Control) is calculated from the ratio Aanalyte/AIS in the non-zero time point sample to the zero time point sample. Ln (% Control) against incubation time is plotted and a linear fit was performed.

[2] = Pharmacokinetic study in SD rats (intravenous injection and intragastric administration); format: in vivo, Sprague Dawley (SD) rats; conditions: for bioavailability: Oral (10 mg/kg) vs Injection (1 mg/kg), read-out: Bioavailability F(%); for half-life: read-out: Half-life T1/2 (converted); for AUC(0-inf): read-out: area under curve AUC0-∞; for MRT: read-out: residence time MRT
Description: Test Example 3. Oral Pharmacokinetic Studies of the Compounds of the Present Disclosure in SD Rats
SD rats were used as the experimental animal. The rats were intravenously injected or intragastrically administered with the compounds of the present disclosure, and the drug concentrations in plasma at different times were tested by LC/MS/MS methods, so as to research the pharmacokinetic characteristics of compounds of present disclosure in rats.
Forty-eight healthy adult Sprague Dawley (SD) male rats were purchased from Weitong Lihua Laboratory Animal Technology Co., Ltd., production license number: 11400700271077.
48 healthy adult male SD rats were fasted overnight and administered via tail vein injection (at a dosage of 1 mg/kg) and intragastrically administered (at a dosage of 10 mg/kg), respectively. The rats were fed 4 h after the administration.
About 0.2 mL of blood was collected from the jugular vein before administering and at 0.083 hours, 0.25 hours, 0.5 hours, 1 hour, 2 hours, 4 hours, 8 hours, 12 hours, and 24 hours after administering, and heparin sodium was used for anticoagulation. Blood samples were collected and placed on ice, and plasma was separated by centrifugation (centrifugation conditions: 1500 g, 10 min). The collected plasma was stored at −40° C.-20° C. before analysis.
10 μL of plasma sample was taken and 400 μL of acetonitrile (containing internal standard working solution, comprising 5 ng/mL verapamil and 50 ng/mL glibenclamide) was added. The resulting mixture was vortexed for 10 minutes, and centrifuged at 3700 rpm for 10 minutes. 70 μL of the supernatant was taken, and […] of water was added. The resulting mixture was vortexed for 10 minutes, and 2 μL of the mixture was transferred to the LC-MS/MS for sample analysis.

[3] = male, Sprague-Dawley, rat, plasma
[4] = male, Sprague-Dawley, rat, plasma, Oral (10 mg/kg)
[5] = male, Sprague-Dawley, rat, plasma, iv, Injection (1 mg/kg), tail vein

| Compound | IC50 (Human AT2R) | half-life at 1 µM [1] | Half-life T1/2 ([2]; Injection (1 mg/kg), tail vein) | bioavailability [2, 3] | half-life [2, 4] | AUC(0-inf) [2, 4] | MRT [2, 4] | AUC(0-inf) [2, 5] | MRT [2, 5] | Cmax ([2]; male, Sprague-Dawley, rat, plasma, Oral (10 mg/kg), read-out: blood concentration Cmax) | half-life [2, 5] |
| --- | --- | --- | --- | --- | --- | --- | --- | --- | --- | --- | --- |
| COc1ccc(COc2c(OC)ccc3c2C[C@@H](C(=O)O)N(c2nc4ccc(F)cc4o2)C3)cc1 [Example 30, (S)-2-(6-fluorobenzo[d]oxazol-2-yl)-6-methoxy-5-((4-methoxybenzyl)oxy)-1,2,3,4-tetrahydroisoquinoline-3-carboxylic acid] | 4 nM | 251 min | 2.4 ± 0.8 h | 22.1% | 3.3 ± 0.5 h | 7130 ± 1630 ng·h/mL | 3.6 ± 0.4 h | 3230 ± 659 ng·h/mL | 1.2 ± 0.4 h | – | – |
| COc1ccc(COc2c(OC)ccc3c2C[C@@H](C(=O)O)N(c2nc4ccc(F)cc4o2)C3)nc1 [Example 36, (S)-2-(6-fluorobenzo[d]oxazol-2-yl)-6-methoxy-5-((5-methoxypyridin-2-yl)methoxy)-1,2,3,4-tetrahydroisoquinoline-3-carboxylic acid] | 10 nM | 768 min | – | 53.7% | 3.8 ± 1 h | 24700 ± 9400 ng·h/mL | 5.4 ± 1.3 h | 4600 ± 240 ng·h/mL | 2.3 ± 0.6 h | 4740 ± 662 ng/mL | 4.8 ± 2.6 h |
